# Measured values taken from US20060058324A1, “4-Amino-5-phenyl-7-cyclohexyl-pyrrolo 2,3-d pyrimidine derivatives” (priority 2002, published 2006).
# Target: T1, human IGF-IR (Homo sapiens, UniProt P08069)
# T1 construct: complete human IGF-IR cDNA: GenBank Acc; No. NM_000875; expressed in transfected cells; host or cells: NIH-3T3 mouse fibroblasts (NWT-21 cell line), prepared as in Kato et al., J. Biol. Chem. 268, 2655-61, 1993
# Test: cellular "Capture ELISA" test for activity against IGF-I induced IGF-IR autophosphorylation
# Type: cell-based
# Details: IGF-I (10 ng/ml) induced IGF-IR autophosphorylation in NIH-3T3 mouse fibroblasts transfected with human IGF-IR (NWT-21 cell line); 90 min compound incubation
# Protocol: In this assay the activity of the compounds of the invention against Insulin-like growth factor I (IGF-I) induced autophosphorylation of the IGF-IR is determined. The assay is conducted as follows:
# The cells which overexpress human IGF-IR are cultured in Dulbecco's minimal essential (DMEM) medium, containing 10% Fetal Calf Serum (FCS). […] On day 3 the medium is discarded and the cells are incubated for 24 h in minimal medium (DMEM, containing 0.5% FCS).
# The plates are washed twice with 0.05% (v/v) Tween-20 in Phosphate-Buffered Saline (PBS) and once with nanopure H2O. […] After blocking, the plates are washed once with nanopure H2O.
# After incubating the extracts and the secondary antibody for 2 h at 4° C., the extracts are discarded, the plates are washed twice with 0.05% (v/v) Tween-20 in PBS and once with nanopure water.
# 90 μl/well AP substrate (CDP-Star; obtained from Tropix; Cat. No.: MS100RY) are then added and the plates are incubated for 45 min at RT in the dark, followed by measuring AP activity in a Packard Top Count Microplate Scintillation Counter. The IC50 values for the compounds of formula I are calculated via linear regression analysis using the GraphPad In-stat program (GraphPad Software, USA).
# Test for activity against IGF-I induced IGF-IR autophosphorylation using the cellular “Capture ELISA” test
# The cellular “Capture ELISA” test is carried out as described above.
# T1 sequence (P08069 31-1367): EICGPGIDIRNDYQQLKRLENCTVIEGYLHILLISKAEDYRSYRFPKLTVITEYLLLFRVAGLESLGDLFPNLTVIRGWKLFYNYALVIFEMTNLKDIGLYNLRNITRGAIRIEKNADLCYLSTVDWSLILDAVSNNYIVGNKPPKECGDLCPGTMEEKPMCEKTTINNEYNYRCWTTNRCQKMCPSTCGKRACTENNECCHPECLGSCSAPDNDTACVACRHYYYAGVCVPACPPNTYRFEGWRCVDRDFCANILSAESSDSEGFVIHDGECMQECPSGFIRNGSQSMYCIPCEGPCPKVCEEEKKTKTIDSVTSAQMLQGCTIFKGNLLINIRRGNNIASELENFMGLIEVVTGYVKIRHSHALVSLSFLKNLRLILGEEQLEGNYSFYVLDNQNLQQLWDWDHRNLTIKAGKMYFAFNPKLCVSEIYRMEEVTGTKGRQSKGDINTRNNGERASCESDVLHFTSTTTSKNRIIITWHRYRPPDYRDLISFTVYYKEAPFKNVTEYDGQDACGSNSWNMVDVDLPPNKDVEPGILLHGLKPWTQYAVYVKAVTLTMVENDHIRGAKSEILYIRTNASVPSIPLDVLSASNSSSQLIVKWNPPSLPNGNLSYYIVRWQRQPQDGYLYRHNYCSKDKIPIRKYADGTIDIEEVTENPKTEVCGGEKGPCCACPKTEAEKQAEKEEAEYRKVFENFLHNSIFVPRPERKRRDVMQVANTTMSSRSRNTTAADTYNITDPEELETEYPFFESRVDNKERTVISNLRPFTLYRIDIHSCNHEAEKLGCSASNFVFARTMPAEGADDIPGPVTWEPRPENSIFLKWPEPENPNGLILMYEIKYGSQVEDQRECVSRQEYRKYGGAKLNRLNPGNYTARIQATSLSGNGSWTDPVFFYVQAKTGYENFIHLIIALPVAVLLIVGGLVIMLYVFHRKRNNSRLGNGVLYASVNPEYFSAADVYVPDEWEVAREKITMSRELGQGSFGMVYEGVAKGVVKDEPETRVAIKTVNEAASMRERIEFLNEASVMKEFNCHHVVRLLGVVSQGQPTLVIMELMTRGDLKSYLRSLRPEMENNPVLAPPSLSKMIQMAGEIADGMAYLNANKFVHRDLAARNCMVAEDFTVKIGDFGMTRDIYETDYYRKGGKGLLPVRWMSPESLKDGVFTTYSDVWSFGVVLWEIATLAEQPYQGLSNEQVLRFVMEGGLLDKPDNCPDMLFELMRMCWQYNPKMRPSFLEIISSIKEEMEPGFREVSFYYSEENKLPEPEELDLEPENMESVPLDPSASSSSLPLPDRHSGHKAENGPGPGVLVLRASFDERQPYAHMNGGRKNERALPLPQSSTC
row,IC50,SMILES
1,350 nM,"Nc1ncnc2c1c(-c1cccc(OCc3ccccc3)c1)cn2[C@H]1CC[C@H](N2CCC2)CC1 [Example 11, trans-7-(4-Azetidin-1-yl-cyclohexyl)-5-(3-benzyloxy-phenyl)-7H-pyrrolo[2,3-d]pyrimidin-4-ylamine]"
2,120 nM,"Nc1ncnc2c1c(-c1cccc(OCc3ccccc3)c1)cn2[C@H]1CC[C@@H](N2CCC2)CC1 [Example 10, cis-7-(4-Azetidin-1-yl-cyclohexyl)-5-(3-benzyloxy-phenyl)-7H-pyrrolo[2,3-d]pyrimidin-4-ylamine]"
3,400 nM,"CCN(CC)[C@H]1CC[C@H](n2c(C)c(-c3cccc(OCc4ccccc4)c3)c3c(N)ncnc32)CC1 [Example 47, trans-5-(3-Benzyloxy-phenyl)-7-(4-diethylamino-cyclohexyl)-6-methyl-7H-Pyrrolo[2,3-d]pyrimidin-4-ylamine]"
